The source of these data is publication PMC6152416, “Pharmacological and Toxicological Screening of Novel Benzimidazole-Morpholine Derivatives as Dual-Acting Inhibitors” (Molecules : A Journal of Synthetic Chemistry and Natural …, 2017).

For orientation: IC50 means the concentration that inhibits the measured activity by half. By inhibition is commonly meant how much of the control response was suppressed.

Molecules are shown by their SMILES.

The target of the first experiment is T1, COX-1 (Ovis aries, UniProt P05979).
T1 construct: purchased BioVision (Milpitas, CA, USA) K548-100
T1 sequence (P05979 25-600): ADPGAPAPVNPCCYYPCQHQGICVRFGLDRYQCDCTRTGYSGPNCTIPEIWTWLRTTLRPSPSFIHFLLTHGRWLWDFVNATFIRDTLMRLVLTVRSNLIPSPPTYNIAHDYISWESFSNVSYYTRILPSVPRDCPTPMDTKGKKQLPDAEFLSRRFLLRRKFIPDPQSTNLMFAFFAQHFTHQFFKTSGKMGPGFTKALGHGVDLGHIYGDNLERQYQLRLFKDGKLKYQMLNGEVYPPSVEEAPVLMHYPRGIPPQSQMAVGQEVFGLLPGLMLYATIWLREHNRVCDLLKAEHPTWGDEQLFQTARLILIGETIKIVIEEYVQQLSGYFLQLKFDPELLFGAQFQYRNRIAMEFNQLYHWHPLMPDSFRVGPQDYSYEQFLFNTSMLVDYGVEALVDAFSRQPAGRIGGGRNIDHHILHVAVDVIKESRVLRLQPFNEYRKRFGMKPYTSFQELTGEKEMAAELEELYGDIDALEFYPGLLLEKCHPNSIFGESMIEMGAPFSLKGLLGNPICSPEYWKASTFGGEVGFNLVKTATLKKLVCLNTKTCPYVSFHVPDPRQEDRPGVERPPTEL
The experiment is described as follows: Fluorimetric COX-1 inhibition screening kit (BioVision). The format is biochemical.
Settings: not given
As to the method: (§1) Inhibitory potency of the compounds on COX-1 and COX-2 enzymes was determined by using fluorimetric COX-1 and COX-2 inhibition screening kits from BioVision (Milpitas, CA, USA). The experimental protocol as described in the guides provided by the supplier was followed. All of the pipetting were performed using a robotized system to increase speed, accuracy and precision. Fluorescence intensities of the samples were kinetically measured at 25 °C for 5–10 min by monitoring emissions at 587 nm after excitation at 535 nm. Two appropriate points (T1 and T2) in the linear range of the plot were chosen and the corresponding fluorescence values (RFU1 and RFU2) were obtained. The slope for all samples including Enzyme Control (EC) was calculated by dividing the net ΔRFU (RFU2 − RFU1) values by the time ΔT (T2 − T1). Percentage of relative inhibition was calculated by using the following equation:% Relative inhibition = (Slope of EC − Slope of S/Slope of EC) × 100 where S is the term representing the tested compound [51, 52]. […] The IC50 values were calculated using the plots of the enzyme activity against concentrations by applying regression analyses.
On to `c1ccc(COc2ccc(-c3nc4ccccc4n3CCN3CCOCC3)cc2)cc1` [Compound 2f, 2-(4-Benzyloxyphenyl)-1-[2-(morpholin-4-yl)ethyl]-1H-benzimidazole], for which the IC50 stood at 43.2 µM.

The experiment is the same for the next values; noted with them: 10^-3 M.
On to `c1ccc(COc2ccc(-c3nc4ccccc4n3CCN3CCOCC3)cc2)cc1` [Compound 2f, 2-(4-Benzyloxyphenyl)-1-[2-(morpholin-4-yl)ethyl]-1H-benzimidazole], for which the “COX-1 Inhibition (%)” value came to 75.37%.

The same experiment, now with this note: 10^-4 M.
`c1ccc(COc2ccc(-c3nc4ccccc4n3CCN3CCOCC3)cc2)cc1` [Compound 2f, 2-(4-Benzyloxyphenyl)-1-[2-(morpholin-4-yl)ethyl]-1H-benzimidazole]: the “COX-1 Inhibition (%)” value was 79.08%.

Still in this experiment, the particulars now being: 10^−3 M and 10^−4 M.
With `c1ccc(COc2ccc(-c3nc4ccccc4n3CCN3CCOCC3)cc2)cc1` [Compound 2f, 2-(4-Benzyloxyphenyl)-1-[2-(morpholin-4-yl)ethyl]-1H-benzimidazole], the “COX-1 inhibition at the initial concentrations” value is reported as “more than 50%”.

Staying with this experiment, now noted: 10^−5 M.
As for `c1ccc(COc2ccc(-c3nc4ccccc4n3CCN3CCOCC3)cc2)cc1` [Compound 2f, 2-(4-Benzyloxyphenyl)-1-[2-(morpholin-4-yl)ethyl]-1H-benzimidazole], the inhibition at 10 µM came out at 45.4 ± 0.99%.

The experiment is the same for the next values; noted with them: 10^−6 M.
`c1ccc(COc2ccc(-c3nc4ccccc4n3CCN3CCOCC3)cc2)cc1` [Compound 2f, 2-(4-Benzyloxyphenyl)-1-[2-(morpholin-4-yl)ethyl]-1H-benzimidazole] returned an inhibition at 1 µM of 42.1 ± 0.87%.

Staying with this experiment, now noted: 10^−7 M.
`c1ccc(COc2ccc(-c3nc4ccccc4n3CCN3CCOCC3)cc2)cc1` [Compound 2f, 2-(4-Benzyloxyphenyl)-1-[2-(morpholin-4-yl)ethyl]-1H-benzimidazole]: the inhibition at 0.1 µM was 34.2 ± 0.76%.

Staying with this experiment, now noted: 10^−8 M.
Take `c1ccc(COc2ccc(-c3nc4ccccc4n3CCN3CCOCC3)cc2)cc1` [Compound 2f, 2-(4-Benzyloxyphenyl)-1-[2-(morpholin-4-yl)ethyl]-1H-benzimidazole]: the inhibition at 0.01 µM came to 32.7 ± 0.78%.

The experiment is the same for the next values; noted with them: 10^−9 M.
Consider `c1ccc(COc2ccc(-c3nc4ccccc4n3CCN3CCOCC3)cc2)cc1` [Compound 2f, 2-(4-Benzyloxyphenyl)-1-[2-(morpholin-4-yl)ethyl]-1H-benzimidazole], for which at 0.001 µM the inhibition was 29.9 ± 0.68%.

The target in the next experiment is T2, human recombinant MAO-B (Homo sapiens, UniProt P27338).
T2 sequence (P27338 1-520): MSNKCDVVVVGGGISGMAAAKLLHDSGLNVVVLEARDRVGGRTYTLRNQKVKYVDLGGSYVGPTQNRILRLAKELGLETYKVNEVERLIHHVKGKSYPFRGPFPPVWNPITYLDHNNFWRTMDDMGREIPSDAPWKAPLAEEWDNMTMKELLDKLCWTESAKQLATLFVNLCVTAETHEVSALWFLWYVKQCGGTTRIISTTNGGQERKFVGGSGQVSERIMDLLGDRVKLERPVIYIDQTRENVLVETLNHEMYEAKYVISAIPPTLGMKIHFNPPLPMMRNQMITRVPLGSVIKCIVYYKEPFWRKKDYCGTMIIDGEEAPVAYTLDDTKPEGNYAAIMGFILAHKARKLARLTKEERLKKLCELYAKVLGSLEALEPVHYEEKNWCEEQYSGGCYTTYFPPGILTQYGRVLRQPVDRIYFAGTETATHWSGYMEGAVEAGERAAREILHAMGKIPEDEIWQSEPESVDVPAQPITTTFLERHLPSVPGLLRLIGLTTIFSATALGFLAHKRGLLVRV
The experiment is described as follows: MAO inhibition assay (kynuramine, fluorimetric). The format is biochemical. The conditions noted are these: 10^-3 M. As to the method:
(§2) Enzyme activity assays were performed according to the procedure reported by Matsumoto et al. with slight modifications. In order to prevent the destructive effect of light on MAO enzymes, the assays were performed in 96-well black plates. Phosphate buffer solution (0.1 M, pH = 7.4) was used for preparation of stock solutions (5 mg/mL) of both human recombinant MAO-A and MAO-B enzymes. […] The addition of the test compound solution was followed by addition of either MAO-A or MAO-B enzyme (50 μL/well) solutions. After 10 min of incubation at 37 °C, kynuramine (50 μL/well) was added and enzyme-substrate reaction was initiated. The plate was incubated for 20 min at 37 °C and then reaction was terminated by addition of 2 N NaOH (75 μL/well). The fluorimetric reads from the top was performed at 310 nm excitation and 380 nm emission wavelengths.
Consider `c1ccc(COc2ccc(-c3nc4ccccc4n3CCN3CCOCC3)cc2)cc1` [Compound 2f, 2-(4-Benzyloxyphenyl)-1-[2-(morpholin-4-yl)ethyl]-1H-benzimidazole], for which the “MAO-B Inhibition (%)” value is recorded as 39.32%.

The same experiment, now with this note: 10^-4 M.
`c1ccc(COc2ccc(-c3nc4ccccc4n3CCN3CCOCC3)cc2)cc1` [Compound 2f, 2-(4-Benzyloxyphenyl)-1-[2-(morpholin-4-yl)ethyl]-1H-benzimidazole]: the “MAO-B Inhibition (%)” value is recorded as 31.14%.

The next experiment deals with T3, human recombinant MAO-A (Homo sapiens, UniProt P21397).
T3 sequence (P21397 1-527): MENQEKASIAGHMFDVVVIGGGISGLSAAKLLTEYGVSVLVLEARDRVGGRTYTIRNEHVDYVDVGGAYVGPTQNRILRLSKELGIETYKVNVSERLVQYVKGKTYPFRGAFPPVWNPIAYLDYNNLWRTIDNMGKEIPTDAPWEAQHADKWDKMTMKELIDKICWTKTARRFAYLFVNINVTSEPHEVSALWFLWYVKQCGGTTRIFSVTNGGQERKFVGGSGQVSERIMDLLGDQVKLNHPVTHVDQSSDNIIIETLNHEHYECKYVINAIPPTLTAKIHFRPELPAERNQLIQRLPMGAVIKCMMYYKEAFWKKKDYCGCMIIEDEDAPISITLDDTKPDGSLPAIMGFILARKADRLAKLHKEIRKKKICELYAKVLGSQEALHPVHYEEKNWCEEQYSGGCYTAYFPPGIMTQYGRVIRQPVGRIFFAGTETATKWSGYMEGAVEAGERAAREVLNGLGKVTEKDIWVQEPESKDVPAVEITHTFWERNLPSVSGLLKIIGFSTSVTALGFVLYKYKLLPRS
In words: MAO inhibition assay (kynuramine, fluorimetric). The format is biochemical. The conditions noted are these: 10^-3 M. The procedure: as §2
As for `c1ccc(COc2ccc(-c3nc4ccccc4n3CCN3CCOCC3)cc2)cc1` [Compound 2f, 2-(4-Benzyloxyphenyl)-1-[2-(morpholin-4-yl)ethyl]-1H-benzimidazole], the “MAO-A Inhibition (%)” value stood at 32.14%.

The experiment is the same for the next values; noted with them: 10^-4 M.
With `c1ccc(COc2ccc(-c3nc4ccccc4n3CCN3CCOCC3)cc2)cc1` [Compound 2f, 2-(4-Benzyloxyphenyl)-1-[2-(morpholin-4-yl)ethyl]-1H-benzimidazole], the “MAO-A Inhibition (%)” value turned out to be 20.65%.

The next experiment has as its target T4, COX-2 (Homo sapiens, UniProt P35354).
T4 construct: purchased BioVision (Milpitas, CA, USA) K547-100
T4 sequence (P35354 18-604): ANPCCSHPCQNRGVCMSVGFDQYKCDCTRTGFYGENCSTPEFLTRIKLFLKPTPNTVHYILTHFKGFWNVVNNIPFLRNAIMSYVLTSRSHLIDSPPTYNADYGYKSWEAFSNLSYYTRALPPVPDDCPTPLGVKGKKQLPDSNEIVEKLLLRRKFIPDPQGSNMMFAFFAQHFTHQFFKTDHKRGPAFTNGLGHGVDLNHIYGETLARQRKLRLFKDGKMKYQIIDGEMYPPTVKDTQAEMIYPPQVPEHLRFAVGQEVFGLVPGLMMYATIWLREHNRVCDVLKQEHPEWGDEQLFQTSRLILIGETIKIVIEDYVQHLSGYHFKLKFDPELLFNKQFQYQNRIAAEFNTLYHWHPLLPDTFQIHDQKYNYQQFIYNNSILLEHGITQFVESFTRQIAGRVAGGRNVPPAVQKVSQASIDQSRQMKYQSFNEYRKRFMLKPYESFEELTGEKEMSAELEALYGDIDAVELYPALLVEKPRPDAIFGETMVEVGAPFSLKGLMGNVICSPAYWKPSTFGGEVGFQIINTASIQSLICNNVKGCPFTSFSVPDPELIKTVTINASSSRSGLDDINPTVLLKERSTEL
The experiment is described as follows: Fluorimetric COX-2 inhibition screening kit (BioVision). It counts as biochemical.
Settings: not given
The procedure: as §1
On to `c1ccc(COc2ccc(-c3nc4ccccc4n3CCN3CCOCC3)cc2)cc1` [Compound 2f, 2-(4-Benzyloxyphenyl)-1-[2-(morpholin-4-yl)ethyl]-1H-benzimidazole], for which the IC50 was determined as 44.9 µM.

Staying with this experiment, now noted: 10^-3 M.
For `c1ccc(COc2ccc(-c3nc4ccccc4n3CCN3CCOCC3)cc2)cc1` [Compound 2f, 2-(4-Benzyloxyphenyl)-1-[2-(morpholin-4-yl)ethyl]-1H-benzimidazole], the “COX-2 Inhibition (%)” value came out at 61.23%.

The experiment is the same for the next values; noted with them: 10^-4 M.
Regarding `c1ccc(COc2ccc(-c3nc4ccccc4n3CCN3CCOCC3)cc2)cc1` [Compound 2f, 2-(4-Benzyloxyphenyl)-1-[2-(morpholin-4-yl)ethyl]-1H-benzimidazole], the “COX-2 Inhibition (%)” value is reported as 60.20%.

Staying with this experiment, now noted: 10^−3 M and 10^−4 M.
On to `c1ccc(COc2ccc(-c3nc4ccccc4n3CCN3CCOCC3)cc2)cc1` [Compound 2f, 2-(4-Benzyloxyphenyl)-1-[2-(morpholin-4-yl)ethyl]-1H-benzimidazole], for which the “COX-2 inhibition at the initial concentrations” value is reported as “more than 50%”.

The same experiment, now with this note: 10^−5 M.
Consider `c1ccc(COc2ccc(-c3nc4ccccc4n3CCN3CCOCC3)cc2)cc1` [Compound 2f, 2-(4-Benzyloxyphenyl)-1-[2-(morpholin-4-yl)ethyl]-1H-benzimidazole], for which the inhibition at 10 µM is 47 ± 1.13%.

The experiment is the same for the next values; noted with them: 10^−6 M; read-out: COX 2 Inhibition %.
Regarding `c1ccc(COc2ccc(-c3nc4ccccc4n3CCN3CCOCC3)cc2)cc1` [Compound 2f, 2-(4-Benzyloxyphenyl)-1-[2-(morpholin-4-yl)ethyl]-1H-benzimidazole], the inhibition at 1 µM turned out to be 40.2 ± 1.24%.

Still in this experiment, the particulars now being: 10^−7 M.
Consider `c1ccc(COc2ccc(-c3nc4ccccc4n3CCN3CCOCC3)cc2)cc1` [Compound 2f, 2-(4-Benzyloxyphenyl)-1-[2-(morpholin-4-yl)ethyl]-1H-benzimidazole], for which the inhibition at 0.1 µM was 35.6 ± 0.91%.

Still in this experiment, the particulars now being: 10^−8 M.
As to `c1ccc(COc2ccc(-c3nc4ccccc4n3CCN3CCOCC3)cc2)cc1` [Compound 2f, 2-(4-Benzyloxyphenyl)-1-[2-(morpholin-4-yl)ethyl]-1H-benzimidazole], the inhibition at 0.01 µM was 31.5 ± 0.84%.

Still in this experiment, the particulars now being: 10^−9 M.
On to `c1ccc(COc2ccc(-c3nc4ccccc4n3CCN3CCOCC3)cc2)cc1` [Compound 2f, 2-(4-Benzyloxyphenyl)-1-[2-(morpholin-4-yl)ethyl]-1H-benzimidazole], for which 0.001 µM produced 28.7 ± 0.63% inhibition.

For the next experiment, the target named is AChE (Homo sapiens, UniProt P22303).
AChE, sequence (P22303 32-614): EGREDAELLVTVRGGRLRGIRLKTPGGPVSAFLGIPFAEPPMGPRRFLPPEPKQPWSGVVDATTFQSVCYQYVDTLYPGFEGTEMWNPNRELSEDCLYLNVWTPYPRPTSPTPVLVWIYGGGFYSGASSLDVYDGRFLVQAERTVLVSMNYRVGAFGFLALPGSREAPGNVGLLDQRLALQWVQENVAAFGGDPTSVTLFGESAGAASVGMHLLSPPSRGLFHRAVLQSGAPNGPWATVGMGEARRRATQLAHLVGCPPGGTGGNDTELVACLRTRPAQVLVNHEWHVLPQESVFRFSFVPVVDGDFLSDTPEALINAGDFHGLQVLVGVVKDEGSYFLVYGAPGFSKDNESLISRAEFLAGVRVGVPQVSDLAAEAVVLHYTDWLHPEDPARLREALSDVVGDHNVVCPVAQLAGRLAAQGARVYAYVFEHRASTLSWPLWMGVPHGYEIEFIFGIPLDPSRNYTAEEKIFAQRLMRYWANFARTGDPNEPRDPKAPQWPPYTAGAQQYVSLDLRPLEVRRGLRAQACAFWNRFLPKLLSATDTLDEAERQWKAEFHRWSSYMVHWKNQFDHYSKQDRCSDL
Test: not given
The conditions noted are these: 10^-3 M. The format is biochemical. As to the method: Inhibition potency of the test compounds against AChE was determined using Ellman’s method. Enzyme solutions were prepared in gelatin solution (1%, w/v), at the concentration of 2.5 units/mL. […] AChE solution (20 µL/well) and test solution (20 µL/well) were added to phosphate buffer solution (140 µL/well, pH 8.0 ± 0.1), and incubated at 25 °C for 5 min. […] The production of the yellow anion was recorded by multimode microplate reader for 10 min at 412 nm. As a control, an identical solution of the enzyme without the inhibitor was processed. The control and the inhibitor readings were corrected with blank-readings. All processes were assayed in four independent determinations.
On to `c1ccc(COc2ccc(-c3nc4ccccc4n3CCN3CCOCC3)cc2)cc1` [Compound 2f, 2-(4-Benzyloxyphenyl)-1-[2-(morpholin-4-yl)ethyl]-1H-benzimidazole], for which the “AChE Inhibition (%)” value is given as 15.75%.

The same experiment, now with this note: 10^-4 M.
Consider `c1ccc(COc2ccc(-c3nc4ccccc4n3CCN3CCOCC3)cc2)cc1` [Compound 2f, 2-(4-Benzyloxyphenyl)-1-[2-(morpholin-4-yl)ethyl]-1H-benzimidazole], for which the “AChE Inhibition (%)” value is recorded as 15.75%.
